Patent publication US8771665B2 (Cocrystal Discovery, Inc., priority 2010, dated 2014)

Molecular target: T1, HCV1b NS5B polymerase delta 21 (Hepatitis C virus genotype 1b, UniProt P26663)
T1 construct: purified HCV1b NS5B polymerase delta 21
Test: RNA-Dependent RNA HCV NS5B (Polymerase) Assay and IC50 Determination
Assay type: biochemical
In short: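 Purified NS5B Δ21 (0.6 μg) with polyA:U16 template, 10 μM UTP plus α-32P UTP in Tris-HCl pH 7.5, 5 mM MgCl2, 0.5% Triton X-100, 60 min at 23°C with varied compound concentrations. Radiolabelled RNA captured on filters, quantified by phosphorimaging; IC50 from triplicate assays.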

T1 sequence (P26663 2420-2989): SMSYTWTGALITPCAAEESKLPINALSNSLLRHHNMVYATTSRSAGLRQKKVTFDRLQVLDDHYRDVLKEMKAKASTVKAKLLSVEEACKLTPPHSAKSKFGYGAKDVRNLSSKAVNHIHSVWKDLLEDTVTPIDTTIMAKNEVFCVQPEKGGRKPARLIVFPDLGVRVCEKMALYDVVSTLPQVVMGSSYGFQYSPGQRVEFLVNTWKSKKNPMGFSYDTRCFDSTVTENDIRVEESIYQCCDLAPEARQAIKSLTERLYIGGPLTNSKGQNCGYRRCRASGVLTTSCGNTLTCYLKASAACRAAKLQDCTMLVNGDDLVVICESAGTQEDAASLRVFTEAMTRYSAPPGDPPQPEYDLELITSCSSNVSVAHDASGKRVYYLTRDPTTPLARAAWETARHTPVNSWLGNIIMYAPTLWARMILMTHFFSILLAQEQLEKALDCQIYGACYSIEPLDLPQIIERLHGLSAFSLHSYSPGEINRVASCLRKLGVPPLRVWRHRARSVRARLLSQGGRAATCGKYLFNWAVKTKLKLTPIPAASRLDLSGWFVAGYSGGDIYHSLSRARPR

SMILES: CC1CCC(C2=C(c3cc(-c4ccccc4)sc3C(=O)O)CCN(Cc3ccnc4ccccc34)C2)CC1 (centres unmarked) [Example 148, 3-[5-(4-Methyl-cyclohexyl)-1-quinolin-4-ylmethyl-1,2,3,6-tetrahydro-Pyridin-4-yl]-5-phenyl-thiophene-2-carboxylic acid]
- IC50: > 10 µM

SMILES: CC1CCC(C2=C(c3cc(-c4ccccc4)sc3C(=O)O)CCN(Cc3ccc(Br)cn3)C2)CC1 (centres unmarked) [Example 149, 3-[1-(5-Bromo-pyridin-2-ylmethyl)-5-(4-methyl-cyclohexyl)-1,2,3,6-tetrahydro-pyridin-4-yl]-5-phenyl-thiophene-2-carboxylic acid]
- IC50: 3 to 10 µM

SMILES: CCc1cc(CC)n2nc(CN3CCC(c4cc(-c5ccccc5)sc4C(=O)O)=C(C4CCC(C)CC4)C3)nc2n1 (centres unmarked) [Example 150, 3-[1-(5,7-Diethyl-[1,2,4]triazolo[1,5-a]pyrimidin-2-ylmethyl)-5-(4-methyl-cyclohexyl)-1,2,3,6-tetrahydro-pyridin-4-yl]-5-phenyl-thiophene-2-carboxylic acid]
- IC50: < 3 µM

SMILES: CC1CCC(C2=C(c3cc(-c4ccccc4)sc3C(=O)O)CCN(Cc3nc4nc(C(C)C)cc(C(C)C)n4n3)C2)CC1 (centres unmarked) [Example 151, 3-[1-(5,7-Diisopropyl-[1,2,4]triazolo[1,5-a]pyrimidin-2-ylmethyl)-5-(4-methyl-cyclohexyl)-1,2,3,6-tetrahydro-pyridin-4-yl]-5-phenyl-thiophene-2-carboxylic acid]
- IC50: 3 to 10 µM

SMILES: CC1CCC(C2=C(c3cc(-c4ccccc4)sc3C(=O)O)CCN(C(=O)Cn3cnc4ccccc43)C2)CC1 (centres unmarked) [Example 152, 3-[1-(2-Benzoimidazol-1-yl-acetyl)-5-(4-methyl-cyclohexyl)-1,2,3,6-tetrahydro-pyridin-4-yl]-5-phenyl-thiophene-2-carboxylic acid]
- IC50: < 3 µM

SMILES: CC1CCC(C2=C(c3cc(-c4ccccc4)sc3C(=O)O)CCN(C(=O)Cc3nc4ccccn4n3)C2)CC1 (centres unmarked) [Example 153, 3-[5-(4-Methyl-cyclohexyl)-1-(2-[1,2,4]triazolo[1,5-a]pyridin-2-yl-acetyl)-1,2,3,6-tetrahydro-pyridin-4-yl]-5-phenyl-thiophene-2-carboxylic acid]
- IC50: 3 to 10 µM

SMILES: CC1CCC(C2=C(c3cc(-c4ccccc4)sc3C(=O)O)CCN(C(=O)c3ccc(C(F)(F)F)nc3)C2)CC1 (centres unmarked) [Example 154, 3-[5-(4-Methyl-cyclohexyl)-1-(6-trifluoromethyl-pyridine-3-carbonyl)-1,2,3,6-tetrahydro-pyridin-4-yl]-5-phenyl-thiophene-2-carboxylic acid]
- IC50: < 3 µM

SMILES: CC1CCC(C2=C(c3cc(-c4ccccc4)sc3C(=O)O)CCN(C(=O)c3nccnc3N)C2)CC1 (centres unmarked) [Example 155, 3-[1-(3-Amino-pyrazine-2-carbonyl)-5-(4-methyl-cyclohexyl)-1,2,3,6-tetrahydro-pyridin-4-yl]-5-phenyl-thiophene-2-carboxylic acid]
- IC50: > 10 µM

SMILES: CC1CCC(C2=C(c3cc(-c4ccccc4)sc3C(=O)O)CCN(C(=O)c3cncn3C)C2)CC1 (centres unmarked) [Example 156, 3-[5-(4-Methyl-cyclohexyl)-1-(3-methyl-3H-imidazole-4-carbonyl)-1,2,3,6-tetrahydro-pyridin-4-yl]-5-phenyl-thiophene-2-carboxylic acid]
- IC50: > 10 µM

SMILES: CC1CCC(C2=C(c3cc(-c4ccccc4)sc3C(=O)O)CCN(Cc3cncnc3)C2)CC1 (centres unmarked) [Example 157, 3-[5-(4-Methyl-cyclohexyl)-1-pyrimidin-5-ylmethyl-1,2,3,6-tetrahydro-pyridin-4-yl]-5-phenyl-thiophene-2-carboxylic acid]
- IC50: > 10 µM

SMILES: CC1CCC(C2=C(c3cc(-c4ccc(/C=C/c5cscn5)cc4)sc3C(=O)O)CCN(C)C2)CC1 (centres unmarked) [Example 158, 3-[1-Methyl-5-(4-methyl-cyclohexyl)-1,2,3,6-tetrahydro-pyridin-4-yl]-5-[4-(2-thiazol-4-yl-vinyl)-phenyl]-thiophene-2-carboxylic acid]
- IC50: > 10 µM

SMILES: CC1CCC(C2=C(c3cc(-c4ccc(NC(=O)c5cscn5)cc4)sc3C(=O)O)CCNC2)CC1 (centres unmarked) [Example 159, 3-[5-(4-Methyl-cyclohexyl)-1,2,3,6-tetrahydro-pyridin-4-yl]-5-{4-[(thiazole-4-carbonyl)-amino]-phenyl}-thiophene-2-carboxylic acid]
- IC50: < 3 µM

SMILES: CC1CCC(C2=C(c3cc(-c4cc(F)c(NC(=O)c5cscn5)cc4F)sc3C(=O)O)CCN(C)C2)CC1 (centres unmarked) [Example 160, 5-{2,5-Difluoro-4-[(thiazole-4-carbonyl)-amino]-phenyl}-3-[1-methyl-5-(4-methyl-cyclohexyl)-1,2,3,6-tetrahydro-pyridin-4-yl]-thiophene-2-carboxylic acid]
- IC50: < 3 µM

SMILES: Cc1cc(C)n2nc(-c3ccc(-c4cc(C5=C(C6CCC(C)CC6)CN(C)CC5)c(C(=O)O)s4)cc3)cc2n1 (centres unmarked) [Example 161, 5-[4-(5,7-Dimethyl-pyrazolo[1,5-a]pyrimidin-2-yl)-phenyl]-3-[1-methyl-5-(4-methyl-cyclohexyl)-1,2,3,6-tetrahydro-pyridin-4-yl]-thiophene-2-carboxylic acid]
- IC50: 3 to 10 µM

SMILES: Cc1ccnc2cc(-c3ccc(-c4cc(C5=C(C6CCC(C)CC6)CN(C)CC5)c(C(=O)O)s4)cc3)nn12 (centres unmarked) [Example 162, 3-[1-Methyl-5-(4-methyl-cyclohexyl)-1,2,3,6-tetrahydro-pyridin-4-yl]-5-[4-(7-methyl-pyrazolo[1,5-a]pyrimidin-2-yl)-phenyl]-thiophene-2-carboxylic acid]
- IC50: < 3 µM

SMILES: Cc1cnc2cc(-c3ccc(-c4cc(C5=C(C6CCC(C)CC6)CN(C)CC5)c(C(=O)O)s4)cc3)nn2c1 (centres unmarked) [Example 163, 3-[1-Methyl-5-(4-methyl-cyclohexyl)-1,2,3,6-tetrahydro-pyridin-4-yl]-5-[4-(6-methyl-pyrazolo[1,5-a]pyrimidin-2-yl)-phenyl]-thiophene-2-carboxylic acid]
- IC50: 3 to 10 µM

SMILES: CC1CCC(C2=C(c3cc(-c4ccc(-c5cn6ncccc6n5)cc4)sc3C(=O)O)CCN(C)C2)CC1 (centres unmarked) [Example 164, 5-(4-Imidazo[1,2-b]pyridazin-2-yl-phenyl)-3-[1-methyl-5-(4-methyl-cyclohexyl)-1,2,3,6-tetrahydro-pyridin-4-yl]-thiophene-2-carboxylic acid]
- IC50: 3 to 10 µM

SMILES: CC1CCC(C2=C(c3cc(-c4ccc(-n5cc6ncccc6n5)cc4)sc3C(=O)O)CCN(C)C2)CC1 (centres unmarked) [Example 165, 3-[1-Methyl-5-(4-methyl-cyclohexyl)-1,2,3,6-tetrahydro-pyridin-4-yl]-5-(4-pyrazolo[4,3-b]pyridin-2-yl-phenyl)-thiophene-2-carboxylic acid]
- IC50: < 3 µM

SMILES: CC1CCC(C2=C(c3cc(-c4cc(F)c(NC(=O)c5cscn5)c(F)c4)sc3C(=O)O)CCN(C)C2)CC1 (centres unmarked) [Example 166, 5-{3,5-Difluoro-4-[(thiazole-4-carbonyl)-amino]-phenyl}-3-[1-methyl-5-(4-methyl-cyclohexyl)-1,2,3,6-tetrahydro-pyridin-4-yl]-thiophene-2-carboxylic acid]
- IC50: < 3 µM

SMILES: CC1CCC(C2=C(c3cc(-c4ccc(NC(=O)c5cscn5)cc4)sc3C(=O)O)CN(C)CC2)CC1 (centres unmarked) [Example 167, 3-[1-Methyl-4-(4-methyl-cyclohexyl)-1,2,5,6-tetrahydro-pyridin-3-yl]-5-{4-[(thiazole-4-carbonyl)-amino]-phenyl}-thiophene-2-carboxylic acid]
- IC50: < 3 µM

SMILES: CC1CCC(C2=C(c3cc(C#CC(C)(C)C)sc3C(=O)O)CCN(CCO)C2)CC1 (centres unmarked) [Example 168, 5-(3,3-Dimethyl-but-1-ynyl)-3-[1-(2-hydroxy-ethyl)-5-(4-methyl-cyclohexyl)-1,2,3,6-tetrahydro-pyridin-4-yl]-thiophene-2-carboxylic acid]
- IC50: < 3 µM

SMILES: CC1CCC(C2=C(c3cc(-c4ccc(-c5cc6ncccn6n5)cc4)sc3C(=O)O)CN(C)CC2)CC1 (centres unmarked) [Example 169, 3-[1-Methyl-4-(4-methyl-cyclohexyl)-1,2,5,6-tetrahydro-pyridin-3-yl]-5-(4-pyrazolo[1,5-a]pyrimidin-2-yl-phenyl)-thiophene-2-carboxylic acid]
- IC50: < 3 µM

SMILES: CC1CCC(C2=C(c3cc(C#CC(C)(C)C)sc3C(=O)O)CN(C(=O)CO)CC2)CC1 (centres unmarked) [Example 170, 5-(3,3-Dimethyl-but-1-ynyl)-3-[1-(2-hydroxy-acetyl)-4-(4-methyl-cyclohexyl)-1,2,5,6-tetrahydro-pyridin-3-yl]-thiophene-2-carboxylic acid]
- IC50: 3 to 10 µM

SMILES: CC1CCC(C2=C(c3cc(I)sc3C(=O)O)CNCC2)CC1 (centres unmarked) [Example 171, 5-Iodo-3-[4-(4-methyl-cyclohexyl)-1,2,5,6-tetrahydro-pyridin-3-yl]-thiophene-2-carboxylic acid]
- IC50: > 10 µM

SMILES: CC1CCC(C2=C(c3cc(C#CC4(C)CC4)sc3C(=O)O)CCN(C)C2)CC1 (centres unmarked) [Example 172, 5-(1-Methyl-cyclopropylethynyl)-3-[1-methyl-5-(4-methyl-cyclohexyl)-1,2,3,6-tetrahydro-pyridin-4-yl]-thiophene-2-carboxylic acid]
- IC50: < 3 µM

SMILES: CC1CCC(C2=C(c3cc(C#CC4(c5ccccc5)CC4)sc3C(=O)O)CCN(C)C2)CC1 (centres unmarked) [Example 173, 3-[1-Methyl-5-(4-methyl-cyclohexyl)-1,2,3,6-tetrahydro-pyridin-4-yl]-5-(1-phenyl-cyclopropylethynyl)-thiophene-2-carboxylic acid]
- IC50: > 10 µM

SMILES: CC1CCC(C2=C(c3cc(C#CC4(Cc5ccccc5)CC4)sc3C(=O)O)CCN(C)C2)CC1 (centres unmarked) [Example 174, 5-(1-Benzyl-cyclopropylethynyl)-3-[1-methyl-5-(4-methyl-cyclohexyl)-1,2,3,6-tetrahydro-pyridin-4-yl]-thiophene-2-carboxylic acid]
- IC50: > 10 µM

SMILES: CC1CCC(C2=C(c3cc(C#CC4CC4)sc3C(=O)O)CN(C)CC2)CC1 (centres unmarked) [Example 175, 5-Cyclopropylethynyl-3-[1-methyl-4-(4-methyl-cyclohexyl)-1,2,5,6-tetrahydro-pyridin-3-yl]-thiophene-2-carboxylic acid]
- IC50: < 3 µM

SMILES: CC1CCC(C2=C(c3cc(C#CC4CCCC4)sc3C(=O)O)CN(C)CC2)CC1 (centres unmarked) [Example 176, 5-Cyclopentylethynyl-3-[1-methyl-4-(4-methyl-cyclohexyl)-1,2,5,6-tetrahydro-pyridin-3-yl]-thiophene-2-carboxylic acid]
- IC50: < 3 µM
